Results taken from ChEMBL document CHEMBL1764967, “Introduction of aromatic group on 4'-OH of α-GalCer manipulated NKT cell cytokine production” (Bioorg Med Chem, 2011).
Active and inactive are the calls of the source.

Columns and labels:
Mus musculus [1] = assay: Immunostimulatory activity in C57BL/6 mouse assessed as maximum INF-gamma level in serum at 10 ug/ml, iv after 2 hrs by ELISA; format: functional, organism-based
Splenocyte [2] = assay: Immunostimulatory activity in C57BL/6 mouse Splenocytes assessed as release of IL4 after 72 hrs by ELISA; format: functional, cell-based
Mus musculus [3] = organism: Mus musculus; assay: Immunostimulatory activity in mouse DN3A4-1.2 hybridoma cells expressing TCR assessed as IL2 level after 24 to 48 hrs by ELISA; format: functional
Mus musculus [4] = assay: Immunostimulatory activity in C57BL/6 mouse assessed as maximum IL4 level in serum at 10 ug/ml, iv after 2 hrs by ELISA; format: functional, organism-based
Mus musculus [5] = assay: Immunostimulatory activity in C57BL/6 mouse assessed as INF-gamma level in serum at 10 ug/ml, iv after 2 to 24 hrs by ELISA; format: functional, organism-based; settings: TDE = time-dependent effect
Mus musculus [6] = organism: Mus musculus; assay: Immunostimulatory activity in mouse N38.2H4 hybridoma cells expressing TCR assessed as IL2 level after 24 to 48 hrs by ELISA; format: functional
N38.2H4 = assay: Immunostimulatory activity in mouse N38.2H4 cells expressing TCR assessed as IL2 level after 24 by ELISA in presence of mouse CD1d protein; format: functional, cell-based
Mus musculus [7] = assay: Immunostimulatory activity in C57BL/6 mouse assessed as IL4 level in serum at 10 ug/ml, iv after 2 to 24 hrs by ELISA; format: functional, organism-based; settings: TDE = time-dependent effect
Mus musculus [8] = organism: Mus musculus; assay: Immunostimulatory activity in mouse DN3A4-1.2 cells expressing TCR assessed as IL2 level after 24 hrs by ELISA in presence of mouse CD1d protein; format: functional, cell-based
Mus musculus [9] = organism: Mus musculus; assay: Immunostimulatory activity in mouse DN3A4-1.4 hybridoma cells expressing TCR assessed as IL2 level after 24 to 48 hrs by ELISA; format: functional
Mus musculus [10] = assay: Immunostimulatory activity in C57BL/6 mouse assessed as maximum INF-gamma level in serum at 10 ug/ml, iv after 12 hrs by ELISA; format: functional, organism-based
Splenocyte [11] = assay: Immunostimulatory activity in C57BL/6 mouse Splenocytes assessed as release of IL4 at 1000 ng/ml after 72 hrs by ELISA; format: functional, cell-based
Mus musculus [12] = assay: Immunostimulatory activity in C57BL/6 mouse assessed as maximum IL4 level in serum at 10 ug/ml, iv after 4 hrs by ELISA; format: functional, organism-based

Measured: Activity

CCCCCCCCCCCCCCCCCCCCCCCCCC(=O)N[C@@H](CO[C@H]1O[C@H](CO)[C@H](OCCCc2ccccc2)[C@H](O)[C@H]1O)[C@H](O)[C@H](O)CCCCCCCCCCCCCC
active: Mus musculus [1] | Splenocyte [2] | Mus musculus [3] | Mus musculus [4] | Mus musculus [5] tde | Mus musculus [6] | N38.2H4 | Mus musculus [7] tde | Mus musculus [8] | Mus musculus [9] | Mus musculus [10]

CCCCCCCCCCCCCCCCCCCCCCCCCC(=O)N[C@@H](CO[C@H]1O[C@H](CO)[C@H](OC(=O)c2ccccc2)[C@H](O)[C@H]1O)[C@H](O)[C@H](O)CCCCCCCCCCCCCC
active: Mus musculus [3] | Splenocyte [11] | Mus musculus [12] | Mus musculus [5] tde | Mus musculus [6] | N38.2H4 | Mus musculus [7] tde | Mus musculus [8] | Mus musculus [9]

CCCCCCCCCCCCCCCCCCCCCCCCCC(=O)N[C@@H](CO[C@H]1O[C@H](CO)[C@H](OCCc2ccccc2)[C@H](O)[C@H]1O)[C@H](O)[C@H](O)CCCCCCCCCCCCCC
active: Mus musculus [3] | Splenocyte [11] | Mus musculus [12] | Mus musculus [5] tde | Mus musculus [6] | Mus musculus [7] tde | Mus musculus [9] | Mus musculus [10]

CCCCCCCCCCCCCCCCCCCCCCCCCC(=O)N[C@@H](CO[C@H]1O[C@H](CO)[C@H](O)[C@H](O)[C@H]1O)[C@H](O)[C@H](O)CCCCCCCCCCCCCC
active: Mus musculus [1] | Mus musculus [4] | Mus musculus [5] tde | N38.2H4 | Mus musculus [7] tde | Mus musculus [8]
